Measurements published in patent publication US20230138327A1, “COMPOSITIONS AND METHODS CONTAINING REDUCED NICOTINAMIDE RIBOSIDE FOR PREVENTION AND TREATMENT OF PANCREATIC DISEASES AND CONDITIONS” (SOCIETE DES PRODUITS NESTLE S.A., priority 2020, published 2023).
Entries after “also recorded” stand apart in the source; their conditions may differ.

How the values were obtained:
[1] = tested on: AML12 hepatocytes; test: Intracellular NAD+ levels in AML12 hepatocytes treated with NRH or NR; format: cell-based
Method: Even at such relatively low dose, NRH achieved similar increases in intracellular NAD+ levels to those reached with NR at 50-fold higher concentrations.
NRH actions were also extremely fast (FIG. 3), as significant increases in NAD+ levels were observed within 5 minutes after NRH treatment.

[2] = tested on: C2C12 myotubes; test: NAD+ levels in C2C12 myotubes after NRH treatment; format: cell-based
[3] = tested on: 3T3 fibroblasts; test: NAD+ levels in 3T3 fibroblasts after NRH treatment; format: cell-based
[4] = tested on: AML12 cells; test: Pathway of NRH-induced NAD+ synthesis: intracellular metabolites and pathway inhibitors; format: cell-based
Method: FIG. 4. NRH leads to NAD+ biosynthesis through an adenosine kinase dependent path. AML12 cells were treated with an adenosine kinase inhibitor (5-IT; […]) for 1 hour prior to NRH treatment at the doses indicated. Then, 1 hour later, acidic extracts were obtained to measure NAD levels. All values in the figure are expressed as mean+/−SEM of 3 independent experiments. * indicates statistical difference at p<0.05 vs. the respective vehicle treated group.
(§1) Levels of NRH and other NAD-related metabolites in biological samples were obtained by using a cold liquid-liquid extraction using a mixture of methanol:water:chloroform in 5:3:5 (v/v), from which the polar phase was recovered for hydrophilic interaction ultra-high performance liquid chromatography mass spectrometry (UHPLC-MS) analysis. The UHPLC consisted of a binary pump, a cooled autosampler, and a column oven (DIONEX Ultimate 3000 UHPLC+ Focused, Thermo Scientific), connected to a triple quadrupole spectrometer (TSQ Vantage, Thermo Scientific) equipped with a heated electrospray ionisation (H-ESI) source. Of each sample, 2 μL were injected into the analytical column (2.1 mm×150 mm, 5 μm pore size, 200 Å HILICON iHILIC®-Fusion(P)), guarded by a pre-column (2.1 mm×20 mm, 200 Å HILICON iHILIC®-Fusion(P) Guard Kit) operating at 35° C. The mobile phase (10 mM ammonium acetate at pH 9, A, and acetonitrile, B) was pumped at 0.25 mL/min flow rate over a linear gradient of decreasing organic solvent (0.5-16 min, 90-25% B), followed by re-equilibration for a total run time of 30 min. The MS operated in positive mode at 3500 V with multiple reaction monitoring (MRM). The software Xcalibur v4.1.31.9 (Thermo Scientific) was used for instrument control, data acquisition and processing. Retention time and mass detection was confirmed by authentic standards.
A path in which NRH would be converted to NMNH, then to NADH and this would be finally oxidized to NAD+.
In order to understand the exact path by which NRH synthesizes NAD+, we initially evaluated whether NRH, could be transported into the cell by equilibrative nucleoside transporters (ENTs).
The action of NRH was also NAMPT-independent, based on experiments using FK866, a NAMPT inhibitor. If NRH led to NAD+ synthesis via the formation of NMNH, this hypothetical path would require the phosphorylation of NRH into NMNH. Given the essential and rate-limiting role of NRK1 in NR phosphorylation, we wondered whether the ability of NRH to boost NAD+ levels was NRK1 dependent. To answer this question, we evaluated NRH action in primary hepatocytes from either control or NRK1 knockout (NRK1KO) mice. […] Further, they rule out the possibility that NRH-induced NAD+ […] is driven by NRH oxidation into NR.
Considering the molecular structure of NRH, we reasoned that an alternative nucleoside kinase could be responsible for the phosphorylation of NRH. […] The role of AK in NRH-mediated NAD+ synthesis was confirmed using a second, structurally different, AK inhibitor, ABT-702. Metabolomic analyses further confirmed that upon inhibition of AK, the generation of NMNH, NADH and NAD+ was fully blunted, even if NRH was effectively entering the cell.
As a follow-up step, NMNAT enzymes could catalyze the transition from NMNH to NADH. […] Yet, part of the NRH action remained after gallotannin treatment when NRH was used at maximal doses.

[5] = Stability of NRH or NR spiked in isolated mouse plasma; format: in vitro ADME
From the text: as §1

[6] = Stability in water; format: physicochemical; settings: pH=7, at room temperature
Method: NR degradation to NAM has been proposed as a limitation for its pharmacological efficacy. To evaluate whether NRH was also susceptible to degradation to NAM, we spiked NRH or NR in isolated mouse plasma. […] We also tested the stability of NRH in other matrixes. […] Finally, we also certified NRH stability in water (pH=7, at room temperature) for 48 h.

[7] = tested on: mice; test: Hepatic NAD+ levels in mice after oral administration; format: in vivo
Method: 8 week-old C57BI/6NTac mice were orally gavaged with either saline (as vehicle), NR (500 mg/kg) or NRH (500 mg/kg). After 1 hour, liver, skeletal muscle and kidney NAD levels were evaluated. All results are expressed as mean +/−SEM of n=5 mice per group. * indicates statistical difference at p<0.05 vs. vs. saline-treated mice. #indicates statistical difference at p<0.05 vs. NR treated mice.
Oral administration of NRH led to very similar results to those observed after IP administration. […] NRH was detectable in plasma 1 h after oral administration. In contrast, NR levels were undetectable at 1 h after NR administration.

[8] = tested on: INS-1E cells; test: Lipotoxicity (palmitic acid)-induced pancreatic β-cell death, cell viability; format: cell-based; settings: palmitic acid 0.4 mM, 24 hours, NRH 0.1 mM
Method: INS-1E cells were treated with BSA-conjugated palmitic acid (0.4 mM) for 24 hrs in the presence or absence of NRH (0.1 mM). PBS was used as vehicle for NRH, while fatty-acid free BSA was used as control for palmited treatment. After 24 hrs, cell viability was evaluated by luminescence using a commercial kit (Cell Title-Glow; Promega). All results are expressed as mean+/−SEM of n=8 experiments. * indicates P<0.05 vs. the respective vehicle treated group.
INS-1E cells were treated with BSA-conjugated palmitic acid (0.4 mM) for 24 hours in the presence or absence of NRH (0.1 mM). PBS was used as vehicle for NRH, while fatty-acid free BSA was used as control for palmited treatment. After 24 hours, cell viability was evaluated by luminescence using a commercial kit (Cell Title-Glow; Promega).

SMILES: NC(=O)C1=CN([C@@H]2O[C@H](CO)[C@@H](O)[C@H]2O)C=CC1 [NRH]
- Ability to increase intracellular NAD+ compared with NR ([1]; AML12 hepatocytes): superior to that of NR
- Concentration range of maximal effects on NAD+ synthesis ([1]; AML12 hepatocytes): around the millimolar range
- Time after treatment at which significant increases in NAD+ levels were observed ([1]; AML12 hepatocytes (FIG. 3)): ≤ 5 min
- Fold higher NR concentration needed for similar increase in intracellular NAD+ as NRH at 10 μM ([1]; AML12 hepatocytes, NRH 10 μM vs NR): 50 fold
- Increase of intracellular NAD+ levels at maximal effect ([1]; AML12 hepatocytes, around the millimolar range): more than 10 fold
- Concentration at which NAD+ levels are significantly increased ([1]; AML12 hepatocytes, dose-response (FIG. 2)): 10 µM
- NAD+ levels [2]: highly elevated
- NAD+ levels [3]: highly elevated
- Intracellular detection of NRH and NMNH ([4]; 5 minutes after treatment): could be detected
- Increase in intracellular NR and NMN ([4]; after NRH treatment, vs NR treatment): greater than that triggered by NR itself
- Capacity as extracellular NAD+ precursor under ENT blockage ([4]; in the presence of S-(4-nitrobenzyl)-6-thioinosine (NBTI)): largely lost its capacity
- Generation of NMNH, NADH and NAD+ from NRH upon inhibition of AK ([4]; metabolomic analyses): fully blunted
- Dependence of NAD+ increase on NAMPT ([4]; with FK866, a NAMPT inhibitor): NAMPT-independent
- Compound levels in isolated mouse plasma ([5]; 2 h of incubation): remained stable
- Generation of NAM in isolated mouse plasma ([5]; 2 h of incubation): not generated; also recorded: did not significantly alter NAM levels
- NR production in isolated plasma ([5]; NRH incubation in isolated plasma): did not lead to NR production
- Stability in water, duration [6]: 48 h
- Effect on hepatic NAD+ levels compared with NR [7]: more potent effect on hepatic NAD+ levels than NR
- Cell viability under BSA-conjugated palmitic acid [8]: protects against lipotoxicity-induced pancreatic β-cell death
